The subject of the assay is 958667-338-R-J2-PDC tumor spheroids viability. The assay can be described thus: Anticancer human tumor 958667-338-R-J2-PDC patient-derived colon adenocarcinoma cell line growth inhibition [PI3K]. As to conditions: spheroids with HUVEC and MSC; for viability, T/C: stronger effect = lower value. The essentials:
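We assembled tumor spheroids that included a stromal compartment of HUVEC and MSCs, then exposed them to targeted agents alone and together with PI3K pathway inhibitors. Concentration series descended by half-log from clinically achievable Cmax levels. Viability served as the endpoint.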

Structures are written as SMILES. Several values for one entry are separate records, joined by “and”; a condition that tells them apart may be missing. Identical values can stand only once. Bounds are passed on as bounds.
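Note: spheroids exposed to compounds for seven days before readout.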

`CCCS(=O)(=O)Nc1ccc(F)c(C(=O)c2c[nH]c3ncc(-c4ccc(Cl)cc4)cc23)c1F` + CC(Nc1ccc2c(c1)OCCn1cc(N3C(=O)OCC3C(F)F)nc1-2)C(N)=O: the IC50 (commonly the concentration that gives 50% inhibition) is, setting by setting: (curve of first compound, second compound 0.00316 µM) 6.1 µM; (curve of first compound, second compound 0.01 µM) 6.01 µM; (curve of first compound, second compound 0.0316 µM) 5 µM; (curve of first compound, second compound 0.1 µM) 4.77 µM; (curve of first compound, second compound 0.316 µM) 4.81 µM; (curve of first compound, second compound 1 µM) 4.04 µM. For the same molecule, the viability, T/C (in general, the result in the treated group divided by that in the control group, in per cent) (second compound 0.00316 µM, first compound 0.0316 µM) is 99%; the viability, T/C (second compound 0.00316 µM, first compound 0.1 µM) was 105%; the viability, T/C (second compound 0.00316 µM, first compound 0.316 µM) is 106%; the viability, T/C (second compound 0.00316 µM, first compound 1 µM) was 106%; the viability, T/C (second compound 0.00316 µM, first compound 3.16 µM) was 112%; the viability, T/C (second compound 0.00316 µM, first compound 10 µM) is 8.08%. Besides, the viability, T/C is 105% (second compound 0.01 µM, first compound 0.0316 µM); 111% (second compound 0.01 µM, first compound 0.1 µM); 83.7% (second compound 0.01 µM, first compound 0.316 µM); 99.9% (second compound 0.01 µM, first compound 1 µM); 130% (second compound 0.01 µM, first compound 3.16 µM); 5.91% (second compound 0.01 µM, first compound 10 µM). Also, the viability, T/C reads like this: (second compound 0.0316 µM, first compound 0.0316 µM) 104%; (second compound 0.0316 µM, first compound 0.1 µM) 109%; (second compound 0.0316 µM, first compound 0.316 µM) 104%; (second compound 0.0316 µM, first compound 1 µM) 106%; (second compound 0.0316 µM, first compound 3.16 µM) 76.7%; (second compound 0.0316 µM, first compound 10 µM) 9.56%. Further, the viability, T/C is, setting by setting: (second compound 0.1 µM, first compound 0.0316 µM) 78.3%; (second compound 0.1 µM, first compound 0.1 µM) 74.9%; (second compound 0.1 µM, first compound 0.316 µM) 72.3%; (second compound 0.1 µM, first compound 1 µM) 67.5%; (second compound 0.1 µM, first compound 3.16 µM) 81.1%; (second compound 0.1 µM, first compound 10 µM) 5.14%. Besides, the viability, T/C was 72.5% (second compound 0.316 µM, first compound 0.0316 µM); 65.5% (second compound 0.316 µM, first compound 0.1 µM); 61.5% (second compound 0.316 µM, first compound 0.316 µM); 79.1% (second compound 0.316 µM, first compound 1 µM); 79.7% (second compound 0.316 µM, first compound 3.16 µM); 12.3% (second compound 0.316 µM, first compound 10 µM). Also, the viability, T/C (second compound 1 µM, first compound 0.0316 µM) was 57.8%; the viability, T/C (second compound 1 µM, first compound 0.1 µM) is 61%; the viability, T/C (second compound 1 µM, first compound 0.316 µM) is 58%; the viability, T/C (second compound 1 µM, first compound 1 µM) is 68.9%; the viability, T/C (second compound 1 µM, first compound 3.16 µM) was 60.5%; the viability, T/C (second compound 1 µM, first compound 10 µM) was 10.8%.

On to `Cn1cnc2c(F)c(Nc3ccc(Br)cc3Cl)c(C(=O)NOCCO)cc21`, for which the viability, T/C reads like this: (compound 0.00949 µM) 96.5% [middle of 4 runs]; (compound 0.0949 µM) 85.5% [middle of 4 runs]; (compound 0.3 µM) 54.2% [middle of 4 runs]; (compound 0.949 µM) 35.9% [middle of 4 runs]; (compound 3 µM) 20.5% [middle of 4 runs]. Besides, the IC50 (curve of compound) was 377 nM [middle of 4 runs].

As to `CNC(=O)c1ccc(N2C(=S)N(c3ccc(C#N)c(C(F)(F)F)c3)C(=O)C2(C)C)cc1F`, the viability, T/C by setting is: (compound 0.0316 µM) 110% [middle of 4 runs]; (compound 0.1 µM) 97% [middle of 4 runs]; (compound 1 µM) 112% and 103% (2×) and 100%; (compound 3.16 µM) 95.8% and 104% and 124% (2×); (compound 10 µM) 103% (2×) and 115% and 88.7%. Under “curve of compound”, the half-maximal inhibitory concentration (IC50) was over 10 µM.

With `C#Cc1c(F)ccc2cc(O)cc(-c3ncc4c(N5CC6CCC(C5)N6)nc(OCC56CCCN5CC(F)C6)nc4c3F)c12` (stereo unspecified), the viability, T/C reads like this: (compound 0.0316 µM) 98.5% [middle of 4 runs]; (compound 0.1 µM) 103% [middle of 4 runs]; (compound 0.316 µM) 101% [middle of 4 runs]; (compound 1 µM) 97.3% [middle of 4 runs]; (compound 3.16 µM) 86.7% [middle of 4 runs]; (compound 10 µM) 63.8% [middle of 4 runs]. Also, the IC50 (curve of compound) was over 10 µM.

As to `CC(Nc1ncnc2nc[nH]c12)c1cc2cccc(Cl)c2c(=O)n1-c1ccccc1` (stereo unspecified), the viability, T/C is, setting by setting: (compound 0.1 µM) 93.8% [middle of 8 runs]; (compound 1 µM) 90.8% [middle of 8 runs]; (compound 10 µM) 92.9% [middle of 8 runs]. The 50% inhibitory concentration (IC50) (compound alone, run of 06/13/2023) is over 10 µM.

Regarding `CCCS(=O)(=O)Nc1ccc(F)c(C(=O)c2c[nH]c3ncc(-c4ccc(Cl)cc4)cc23)c1F`, the viability, T/C is, setting by setting: (compound 0.1 µM) 94.2% and 87.7% and 113% (2×); (compound 0.316 µM) 107% [middle of 4 runs]; (compound 1 µM) 114% [middle of 4 runs]; (compound 3.16 µM) 116% [middle of 4 runs]; (compound 10 µM) 10.9% [middle of 4 runs]. In addition, the IC50 (curve of compound) was 6.27 µM [middle of 4 runs].
